According to patent US10221173B2, “Chemical compounds” (AstraZeneca AB, priority 2017, dated 2019):
pIC50: −log10 of the molar value. Converted amounts (≈) assume the structure as drawn.

Legend:
[1] = biological target: recombinant human Estrogen Receptor alpha ligand binding domain (ER alpha-LBD (GST)) (Homo sapiens (Human), UniProt P03372); assay: ERα binding assay (LanthaScreen TR-FRET competition)
Procedure: The ability of compounds to bind to isolated Estrogen Receptor Alpha Ligand binding domain (ER alpha—LBD (GST)) was assessed in competition assays using a LanthaScreen Time-Resolved Fluorescence Resonance Energy Transfer (TR-FRET) detection end-point. For the LanthaScreen TR-FRET endpoint, a suitable fluorophore (Fluormone ES2, ThermoFisher, Product code P2645) and recombinant human Estrogen Receptor alpha ligand binding domain, residues 307-554 (expressed and purified in-house) were used to measure compound binding. The assay principle is that ER alpha-LBD (GST) is added to a fluorescent ligand to form a receptor/fluorophore complex. A terbium-labelled anti-GST antibody (Product code PV3551) is used to indirectly label the receptor by binding to its GST tag, and competitive binding is detected by a test compound's ability to displace the fluorescent ligand, resulting in a loss of TR-FRET signal between the Tb-anti-GST antibody and the tracer. The assay was performed as follows with all reagent additions carried out using the Beckman Coulter BioRAPTR FRD microfluidic workstation: • 1. Acoustic dispense 120 nL of the test compound into a black low volume 384 well assay plates. • 2. Prepare 1× ER alpha-LBD/Tb-antiGST Ab in ES2 screening buffer and incubate for 15 minutes. • 3. […] Cover the assay plate to protect the reagents from light and evaporation, and incubate at room temperature for 4 hours. • 5. Excite at 337 nm and measure the fluorescent emission signal of each well at 490 nm and 520 nm using the BMG PheraSTAR.
TR-FRET dose response data obtained with each compound was exported into a suitable software package (such as Origin or Genedata) to perform curve fitting analysis. Competitive ER alpha binding was expressed as an IC50 value.

[2] = biological target: estrogen receptor (ERα) in CAMA-1 cells (Homo sapiens (Human), UniProt P03372); assay: Western blotting assay, ER down-regulation in CAMA-1; format: cell-based; conditions: CAMA-1, 100 nM compound, 48 h, vs 100 nM fulvestrant
Sequence of estrogen receptor (ERα) in CAMA-1 cells (P03372 whole entry): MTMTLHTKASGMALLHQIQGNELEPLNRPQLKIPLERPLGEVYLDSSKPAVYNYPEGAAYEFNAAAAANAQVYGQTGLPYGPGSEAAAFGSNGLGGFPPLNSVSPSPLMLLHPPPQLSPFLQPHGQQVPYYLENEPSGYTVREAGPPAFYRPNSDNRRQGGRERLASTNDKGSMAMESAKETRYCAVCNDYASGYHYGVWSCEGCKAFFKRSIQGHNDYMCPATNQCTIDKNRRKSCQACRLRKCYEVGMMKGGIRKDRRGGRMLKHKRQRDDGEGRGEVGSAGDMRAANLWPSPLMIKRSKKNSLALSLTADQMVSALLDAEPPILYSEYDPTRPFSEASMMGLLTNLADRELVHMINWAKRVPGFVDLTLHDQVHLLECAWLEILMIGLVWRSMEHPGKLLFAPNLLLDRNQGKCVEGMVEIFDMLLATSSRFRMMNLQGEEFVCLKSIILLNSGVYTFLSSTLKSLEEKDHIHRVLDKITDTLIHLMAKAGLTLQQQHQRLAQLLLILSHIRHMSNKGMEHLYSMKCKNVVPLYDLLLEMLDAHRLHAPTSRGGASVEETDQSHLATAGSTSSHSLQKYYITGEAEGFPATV

[3] = biological target: T1, Estrogen Receptor (ERα) in MCF-7 cells (Homo sapiens (Human), UniProt P03372); assay: Western blotting assay, ER down-regulation in MCF-7; format: cell-based; conditions: MCF-7, 100 nM compound, 48 h, vs 100 nM fulvestrant
T1 sequence (P03372 whole entry): as above

[4] = biological target: T1, Estrogen Receptor (ERα) in MCF-7 cells; assay: MCF-7 ER down-regulation assay (immuno-fluorescence); format: cell-based; conditions: for % downregulation (in brackets): maximum downregulation
Procedure: The ability of compounds to down-regulate Estrogen Receptor (ER) numbers was assessed in a cell based immuno-fluorescence assay using the MCF-7 human ductal carcinoma breast cell line. MCF-7 cells were revived directly from a cryovial (approx 5×10^6 cells) in Assay Medium (phenol red free Dulbecco's Modified Eagle's medium (DMEM); Sigma D5921) containing 2 mM L-Glutamine and 5% (v/v) Charcoal/Dextran treated foetal calf serum. Cells were syringed once using a sterile 18G×1.5 inch (1.2×40 mm) broad gauge needle and cell density was measured using a Coulter Counter (Beckman). […] Following cell seeding, plates were incubated overnight at 37° C., 5% CO2 (Liconic carousel incubator). Test data was generated using the LabCyte Echomodel 555 compound reformatter which is part of an automated workcell (Integrated Echo 2 workcell). Compound stock solutions (10 mM) of the test compounds were used to generate a 384 well compound dosing plate (Labcyte P-05525-CV1). […] 40 μL of DMSO added to wells in row P on the source plate allowed for DMSO normalisation across the dose range. To dose the control wells 40 μL of DMSO was added to row O1 and 40 μL of 100 μM fulvestrant in DMSO was added to row O3 on the compound source plate.
The Echo uses acoustic technology to perform direct microplate-to-microplate transfers of DMSO compound solutions to assay plates. The system can be programmed to transfer volumes as low as 2.5 nL in multiple increments between microplates and in so doing generates a serial dilution of compound in the assay plate which is then back-filled to normalise the DMSO concentration across the dilution range. […] The fixing method described above was carried out on the Integrated Echo 2 workcell. Immunostaining was performed using an automated AutoElisa workcell. The PBS/Proclin was aspirated from all wells and the cells permeabilised with 40 μL PBS containing 0.5% Tween™ 20 (v/v) for 1 hour at room temperature. The plates were washed three times in 250 μL of PBS/0.05% (v/v) Tween 20 with Proclin (PBST with a Biocide preservative) and then 20 μL of ERα (SP1) Rabbit monoclonal antibody (Thermofisher) 1:1000 in PBS/Tween™/3% (w/v) Bovine Serum Albumin was added. The plates were incubated overnight at 4° C. (Liconic carousel incubator) and then washed three times in 250 μL of PBS/0.05% (v/v) Tween™ 20 with Proclin (PBST). The plates were then incubated with 20 μL/well of a goat anti-rabbit IgG AlexaFluor 594 or goat anti-rabbit AlexaFluor 488 antibody (Molecular Probes) with Hoechst at 1:5000 in PBS/Tween™/3% (w/v) Bovine Serum Albumin for 1 hour at room temperature. The plates were then washed three times in 250 μL of PBS/0.05% (v/v) Tween™ 20 with Proclin (PBST with a Biocide preservative). 20 μL of PBS was added to each well and the plates covered with a black plate seal and stored at 4° C. before being read. […] The mean total intensity was normalized for cell number giving the total intensity per cell. The data was exported into a suitable software package (such as Origin) to perform curve fitting analysis.

[5] = Human plasma protein binding (equilibrium dialysis); format: in vitro ADME
hERG potassium channel = hERG potassium channel (Homo sapiens (Human), UniProt Q12809)
Sequence of hERG potassium channel (Q12809 whole entry): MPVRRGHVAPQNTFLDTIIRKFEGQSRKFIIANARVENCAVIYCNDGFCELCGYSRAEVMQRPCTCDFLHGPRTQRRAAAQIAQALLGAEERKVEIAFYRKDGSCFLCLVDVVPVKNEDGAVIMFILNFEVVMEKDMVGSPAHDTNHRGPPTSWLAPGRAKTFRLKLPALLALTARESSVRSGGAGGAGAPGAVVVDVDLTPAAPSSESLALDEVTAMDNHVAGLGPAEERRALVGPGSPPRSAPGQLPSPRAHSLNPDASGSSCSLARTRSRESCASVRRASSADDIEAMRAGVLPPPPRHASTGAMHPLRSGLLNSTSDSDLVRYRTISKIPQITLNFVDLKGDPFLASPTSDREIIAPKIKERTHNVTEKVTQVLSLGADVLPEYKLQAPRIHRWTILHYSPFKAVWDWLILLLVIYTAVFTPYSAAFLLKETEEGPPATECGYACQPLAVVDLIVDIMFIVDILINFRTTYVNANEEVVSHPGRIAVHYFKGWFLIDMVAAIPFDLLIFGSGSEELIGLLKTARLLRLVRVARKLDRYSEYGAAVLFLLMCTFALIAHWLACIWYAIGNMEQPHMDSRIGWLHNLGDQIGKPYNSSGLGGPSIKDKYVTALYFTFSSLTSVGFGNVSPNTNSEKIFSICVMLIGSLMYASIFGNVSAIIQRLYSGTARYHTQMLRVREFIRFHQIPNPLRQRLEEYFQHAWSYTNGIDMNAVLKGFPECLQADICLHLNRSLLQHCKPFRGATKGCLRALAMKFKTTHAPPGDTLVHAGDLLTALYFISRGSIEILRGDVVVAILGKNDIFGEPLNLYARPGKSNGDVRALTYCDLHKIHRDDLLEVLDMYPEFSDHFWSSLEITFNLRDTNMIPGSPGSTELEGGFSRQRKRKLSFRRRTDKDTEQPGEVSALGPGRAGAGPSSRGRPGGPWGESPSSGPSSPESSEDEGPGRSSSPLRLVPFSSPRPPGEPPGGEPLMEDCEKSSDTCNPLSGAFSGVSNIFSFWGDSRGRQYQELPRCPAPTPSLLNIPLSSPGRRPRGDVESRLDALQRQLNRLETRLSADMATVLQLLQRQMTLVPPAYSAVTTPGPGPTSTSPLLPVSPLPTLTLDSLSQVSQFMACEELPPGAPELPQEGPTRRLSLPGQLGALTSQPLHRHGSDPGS

[6] = Thermodynamic solubility (shake-flask); format: physicochemical; conditions: thermodynamic from solid, phosphate buffer pH 7.4, 24 hours
[7] = Log D (shake flask, 1-octanol/aqueous buffer); format: physicochemical
[8] = aqueous phosphate buffer, 25 °C, pH 7.4, aqueous buffer
[9] = 1-octanol/aqueous buffer, pH 7.4, pH 7.4

Sequence of recombinant human Estrogen Receptor alpha ligand binding domain (ER alpha-LBD (GST)) (P03372 307-554): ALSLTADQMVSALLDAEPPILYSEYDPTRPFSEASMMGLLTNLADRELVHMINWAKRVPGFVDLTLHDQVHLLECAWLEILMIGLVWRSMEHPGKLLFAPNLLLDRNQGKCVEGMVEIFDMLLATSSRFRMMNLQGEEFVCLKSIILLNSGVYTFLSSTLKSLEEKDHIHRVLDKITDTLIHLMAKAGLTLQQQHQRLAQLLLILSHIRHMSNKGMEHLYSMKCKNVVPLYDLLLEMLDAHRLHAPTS

| SMILES | pIC50 [1] | CAMA1 Western % ER deg vs Fv [2] [%] | MCF7 Western % ER deg vs Fv [3] [%] | pIC50 [4] | Human plasma protein binding (% free) [5] [% free] | pIC50 (hERG potassium channel) | solubility at 24 h [6, 8] [µM] | logD [7, 9] | solubility at 24 h ([6]; aqueous buffer, 25° C.) [µM] | % downregulation (in brackets) [4] [%] | logD ([7]; pH 7.4) |
| --- | --- | --- | --- | --- | --- | --- | --- | --- | --- | --- | --- |
| C[C@@H]1Cc2c([nH]c3ccccc23)[C@@H](c2c(F)cnc(OCCNCCCF)c2F)N1CC(F)(F)CO [Example 64, 3-((1R,3R)-1-(3,5-difluoro-2-(2-((3-fluoropropyl)amino)ethoxy)pyridin-4-yl)-3-methyl-1,3,4,9-tetrahydro-2H-pyrido[3,4-b]indol-2-yl)-2,2-difluoropropan-1-ol] | 9.02 | 98 | 96 | 10.15 | – | – | – | – | – | – | – |
| Cc1c(OCCN(C)CCCF)ncc(F)c1[C@@H]1c2[nH]c3ccccc3c2C[C@@H](C)N1C[C@H](C)C(=O)O [Example 145, (S)-3-((1R,3R)-1-(5-fluoro-2-(2-((3-fluoropropyl)(methyl)amino)ethoxy)-3-methylpyridin-4-yl)-3-methyl-1,3,4,9-tetrahydro-2H-pyrido[3,4-b]indol-2-yl)-2-methylpropanoic acid] | – | – | 94 | – | – | – | – | – | – | – | – |
| Cc1c(OCCNCCCF)ccc(F)c1[C@@H]1c2[nH]c3ccccc3c2C[C@@H](C(F)(F)F)N1C[C@H](C)C(=O)O [Example 140, (S)-3-((1R,3S)-1-(6-fluoro-3-(2-((3-fluoropropyl)amino)ethoxy)-2-methylphenyl)-3-(trifluoromethyl)-1,3,4,9-tetrahydro-2H-pyrido[3,4-b]indol-2-yl)-2-methylpropanoic acid] | 8.85 | – | 84 | 9.00 | – | – | – | – | – | – | – |
| C[C@@H]1Cc2c([nH]c3ccccc23)[C@@H](c2cc(OCCNCCCF)ccc2F)N1CC(F)(F)F [Example 10, 3-fluoro-N-(2-(4-fluoro-3-((1R,3R)-3-methyl-2-(2,2,2-trifluoroethyl)-2,3,4,9-tetrahydro-1H-pyrido[3,4-b]indol-1-yl)phenoxy)ethyl)propan-1-amine] | – | 101 | 94 | – | – | – | – | – | – | – | – |
| COc1ccc(NCCNCCCF)cc1[C@@H]1c2[nH]c3ccccc3c2C[C@@H](C)N1CC(F)(F)F [Example 40, N1-(3-fluoropropyl)-N2-(4-methoxy-3-((1R,3R)-3-methyl-2-(2,2,2-trifluoroethyl)-2,3,4,9-tetrahydro-1H-pyrido[3,4-b]indol-1-yl)phenyl)ethane-1,2-diamine] | 8.10 | 70 | – | 9.28 | 0.89 | 5.39 | 366 (≈ 180 µg/mL) | 3 | – | – | – |
| Cc1c(OCCN(C)CCCF)ccc(F)c1[C@@H]1c2[nH]c3ccccc3c2C[C@@H](C)N1C[C@H](C)C(=O)O [Example 143, (S)-3-((1R,3R)-1-(6-fluoro-3-(2-((3-fluoropropyl)(methyl)amino)ethoxy)-2-methylphenyl)-3-methyl-1,3,4,9-tetrahydro-2H-pyrido[3,4-b]indol-2-yl)-2-methylpropanoic acid] | – | 71 | 87 | – | – | – | – | – | – | – | – |
| Cc1c(OCCNCCCF)cccc1[C@@H]1c2[nH]c3ccccc3c2C[C@@H](C)N1CC(F)(F)F [Example 20, 3-fluoro-N-(2-(2-methyl-3-((1R,3R)-3-methyl-2-(2,2,2-trifluoroethyl)-2,3,4,9-tetrahydro-1H-pyrido[3,4-b]indol-1-yl)phenoxy)ethyl)propan-1-amine] | – | 91 | – | – | – | – | 11 (≈ 5.25 µg/mL) | – | – | – | – |
| C[C@@H](CN1[C@H](c2c(F)ccc(OCCNCCCF)c2Cl)c2[nH]c3ccccc3c2C[C@H]1C(F)(F)F)C(=O)O [Example 141] | 8.55 | – | 79 | 9.01 | – | – | – | – | – | – | – |
| Cc1c(OCCNCCCF)ccc(F)c1[C@@H]1c2[nH]c3ccc(F)cc3c2C[C@@H](C)N1C[C@H](C)C(=O)O [Example 57, (S)-3-((1R,3R)-6-fluoro-1-(6-fluoro-3-(2-((3-fluoropropyl)amino)ethoxy)-2-methylphenyl)-3-methyl-1,3,4,9-tetrahydro-2H-pyrido[3,4-b]indol-2-yl)-2-methylpropanoic acid] | 8.59 | – | 93 | 9.47 | – | – | – | – | – | – | – |
| COCc1ccc(OCCNCCCF)cc1[C@@H]1c2[nH]c3ccccc3c2C[C@@H](C)N1CC(F)(F)F [Example 71, 3-fluoro-N-(2-(4-(methoxymethyl)-3-((1R,3R)-3-methyl-2-(2,2,2-trifluoroethyl)-2,3,4,9-tetrahydro-1H-pyrido[3,4-b]indol-1-yl)phenoxy)ethyl)propan-1-amine] | 8.47 | – | – | 8.70 | 0.44 | 5.24 | – | – | < 1.6 | 90 | 3.8 |
| Cc1c(OCCN(C)CCCF)ncc(F)c1[C@@H]1c2[nH]c3ccccc3c2C[C@@H](C)N1C[C@@H](C)C(=O)O [Example 152, (R)-3-((1R,3R)-1-(5-fluoro-2-(2-((3-fluoropropyl)(methyl)amino)ethoxy)-3-methylpyridin-4-yl)-3-methyl-1,3,4,9-tetrahydro-2H-pyrido[3,4-b]indol-2-yl)-2-methylpropanoic acid] | – | – | 93 | – | – | – | – | – | – | – | – |
| Cc1c(OCCNCCCF)ccc(F)c1[C@@H]1c2[nH]c3ccccc3c2C[C@@H](C)N1C[C@H](C)C(=O)O [Example 55, (S)-3-((1R,3R)-1-(6-fluoro-3-(2-((3-fluoropropyl)amino)ethoxy)-2-methylphenyl)-3-methyl-1,3,4,9-tetrahydro-2H-pyrido[3,4-b]indol-2-yl)-2-methylpropanoic acid] | – | 94 | 89 | – | – | – | – | – | – | – | – |
| COc1ccc(OCCNCCCF)c(F)c1[C@@H]1c2[nH]c3ccccc3c2C[C@@H](C)N1CC1(F)CC1 [Example 83, 3-fluoro-N-(2-(2-fluoro-3-((1R,3R)-2-((1-fluorocyclopropyl)methyl)-3-methyl-2,3,4,9-tetrahydro-1H-pyrido[3,4-b]indol-1-yl)-4-methoxyphenoxy)ethyl)propan-1-amine] | 8.77 | – | – | 9.55 | 2.5 | 5.40 | 595 (≈ 298 µg/mL) | 2.9 | – | 90 | – |
| C[C@@H]1Cc2c([nH]c3ccc(F)cc23)[C@@H](c2c(F)ccc(NCCNCCCF)c2F)N1CC(F)(F)CO [Example 89, 3-((1R,3R)-1-(2,6-difluoro-3-((2-((3-fluoropropyl)amino)ethyl)amino)phenyl)-6-fluoro-3-methyl-1,3,4,9-tetrahydro-2H-pyrido[3,4-b]indol-2-yl)-2,2-difluoropropan-1-ol] | 9.04 | – | – | 9.85 | <3.4 | 5.21 | 670 (≈ 354 µg/mL) | 2.7 | – | – | – |
| COc1c(F)cc(OCCNCCCF)cc1[C@@H]1c2[nH]c3ccccc3c2C[C@@H](C)N1CC(F)(F)F [Example 27, 3-fluoro-N-(2-(3-fluoro-4-methoxy-5-((1R,3R)-3-methyl-2-(2,2,2-trifluoroethyl)-2,3,4,9-tetrahydro-1H-pyrido[3,4-b]indol-1-yl)phenoxy)ethyl)propan-1-amine] | 8.57 | – | – | 8.80 | 0.42 | 5.32 | 6 (≈ 3.07 µg/mL) | 4.2 | – | – | – |
| COc1ccc(OCCNCCCF)c(F)c1[C@@H]1c2[nH]c3ccccc3c2C[C@@H](C)N1CC(F)(F)CO [Example 81, 2,2-difluoro-3-((1R,3R)-1-(2-fluoro-3-(2-((3-fluoropropyl)amino)ethoxy)-6-methoxyphenyl)-3-methyl-1,3,4,9-tetrahydro-2H-pyrido[3,4-b]indol-2-yl)propan-1-ol] | < 6.96 | – | – | 9.77 | 2.9 | 5.41 | 736 (≈ 385 µg/mL) | 2.6 | – | – | – |
| C[C@@H]1Cc2c([nH]c3ccccc23)[C@@H](c2c(Cl)ccc(OCCNCCCF)c2F)N1C[C@H](C)C(=O)O [Example 54, (S)-3-((1R,3R)-1-(6-chloro-2-fluoro-3-(2-((3-fluoropropyl)amino)ethoxy)phenyl)-3-methyl-1,3,4,9-tetrahydro-2H-pyrido[3,4-b]indol-2-yl)-2-methylpropanoic acid] | 8.23 | – | – | 9.00 | 18 | < 4.40 | > 1000 | 0.9 | – | – | – |
| C[C@@H]1Cc2c([nH]c3ccccc23)[C@@H](c2c(F)ccc(OCCNCCCF)c2F)N1CC1(S(C)(=O)=O)CC1 [Example 77, N-(2-(2,4-difluoro-3-((1R,3R)-3-methyl-2-((1-(methylsulfonyl)cyclopropyl)methyl)-2,3,4,9-tetrahydro-1H-pyrido[3,4-b]indol-1-yl)phenoxy)ethyl)-3-fluoropropan-1-amine] | 8.14 | – | – | 8.21 | 5.5 | 5.27 | 410 (≈ 225 µg/mL) | 2.4 | – | – | – |
| C[C@@H]1Cc2c([nH]c3ccccc23)[C@@H](c2c(F)ccc(OCCNCCCF)c2F)N1CC(F)(F)CO [Example 14, 3-((1R,3R)-1-(2,6-difluoro-3-(2-((3-fluoropropyl)amino)ethoxy)phenyl)-3-methyl-1,3,4,9-tetrahydro-2H-pyrido[3,4-b]indol-2-yl)-2,2-difluoropropan-1-ol] | – | 95 | 95 | – | – | – | – | – | – | – | – |
